Experiment [1] relates to Human betaherpesvirus 5. As to the kind of experiment: Inhibition of HCMV replication in MRC-5 cells; No inhibition. Format: functional, organism-based. The conditions noted are these: mrc5.
Experiment [2] in a line: Ratio of kinetic parameters of Vmax to Km was reported.
For experiment [3], the system named is MT4. The experiment is described as follows: Compound was evaluated for the concentration required to reduce the viability of MT-4 cells. Format: functional. The conditions noted are these: Homo sapiens.
Experiment [4] deals with Human betaherpesvirus 5. As to the kind of experiment: Inhibition of HCMV replication in Vero cells at 250 uM; No inhibition. The class given is functional, organism-based.
For experiment [5], the system named is Human alphaherpesvirus 1. As to the kind of experiment: Tested for activity against HSV-1; Not active. Format: functional, organism-based.
Experiment [6] relates to Vero. As to the kind of experiment: Cytotoxicity against Vero cells up to 250 uM; Not active. Format: functional, cell-based, Chlorocebus sabaeus.
Experiment [7] has as its system C8166. The experiment is described as follows: Compound was evaluated for the inhibition of p24 viral antigen production in C-8166 cells. The class given is functional, cell-based. The conditions noted are these: Homo sapiens.
The subject of experiment [8] is MT4. As to the kind of experiment: Compound was evaluated for the inhibition of HIV-1 induced cytopathic effect in MT-4 cells. Format: functional, cell-based. The conditions noted are these: Homo sapiens. In general terms: Damage to the host cells serves as the signal in cytopathic effect assays.
Experiment [9] deals with Human alphaherpesvirus 1. As to the kind of experiment: Inhibitory activity against HSV-1 replication. Format: functional, organism-based.
The subject of experiment [10] is Human alphaherpesvirus 1. The experiment is described as follows: Anti-HSV-1 activity at 300 uM; Not active. The class given is functional, organism-based.

The record followed here is ChEMBL document CHEMBL1129187, “Synthesis, enzymatic phosphorylation and antiviral activity of acyclic dienyl phosphonate derivatives of guanine” (Bioorg Med Chem Lett, 1996).

Bounds are passed on as bounds.

A word on the IC50: it is the point on the concentration scale where inhibition reaches its midpoint. What is called CC50 is the concentration that lowers cell viability or growth by half. Low readings indicate harm at low concentration, high ones better tolerance by the cells. In general, EC50 refers to the concentration needed to bring the measured effect to its halfway point. A lower EC50 goes with a more potent agent. `C=C(/C=C/P(=O)(O)O)CCn1cnc2c(O)nc(N)nc21`: the half-maximal inhibitory concentration (IC50) result in [1], in experiment [4], in [5] and in [6] was “Not Active” each time. Besides, the Ratio in experiment [2] amounted to 102. For the same compound, the CC50 in [3] was over 1000 µM. Moreover, the figures for the 50% effective concentration (EC50) in [7] and in experiment [8] were 8 µM and 49 µM, respectively.
Turning to `Nc1ncnc2c1ncn2CCOCP(=O)(O)O` [ADEFOVIR], the 50% effective concentration (EC50) in experiment [7] is 1.5 µM; in experiment [8] it was 20 µM. In [9], inhibition was half-maximal at 117 µM (IC50).
On to `Cc1cn([C@H]2C[C@H](N=[N+]=[N-])[C@@H](CO)O2)c(=O)[nH]c1=O` [ZIDOVUDINE], for which the EC50 in experiment [7] and in [8] was 0.04 µM each time.
Consider `C=C(/C=C/P(=O)(O)O)Cn1cnc2c(O)nc(N)nc21`, for which the IC50 entry in experiment [10] is “Not Active”; in experiment [1], “Not Active”; in experiment [4], “Not Active”; in experiment [6], “Not Active”; in experiment [9], 119 µM. Further, the Ratio in experiment [2] amounted to 1.8. For the same compound, the CC50 in experiment [3] was over 1000 µM. Further, the EC50 in experiment [8] is over 100 µM.
Turning to `Nc1nc2c(ncn2[C@@H]2O[C@H](COP(=O)(O)O)[C@H](O)[C@@H]2O)c(=O)[nH]1`, the Ratio in experiment [2] is 100.
In turn, `O=c1[nH]cnc2c1ncn2[C@H]1CC[C@@H](CO)O1` [DIDANOSINE] had a CC50 in [3] of over 1000 µM. Moreover, the results for the EC50 in experiment [7] and in experiment [8] were 0.9 µM and 13 µM, respectively.
